Data: patent US10385403B2, “DDR2 mutations in squamous cell lung cancer” (The Broad Institute, Inc., priority 2012, dated 2019)
“Also recorded” adds a separate entry of the source.

Legend:
DDR2 mutant cell lines [1] = test: Cell viability by trypan blue exclusion; type: cell-based
Method: (§1) Cell Proliferation and Viability Assays. […] Proliferation was measured four days later.

[2] = human, in vivo; cited from earlier work
DDR2 mutant cell lines [3] = test: Annexin V analysis 48 hours after addition of drug; type: cell-based; conditions: 48 hours after drug
[4] = system: HCC-366 cells (DDR2 L239R)
From the text: (§2) Cell Proliferation and Viability Assays. […] Kinase inhibitors were purchased from LC Labs or were synthesized by Nathanael Gray's laboratory at Harvard Medical School.

[5] = system: NCI-H2286 cells (DDR2 I638F)
From the text: as §2

[6] = system: NIH-3T3 cells expressing L63V DDR2; test: Soft agar colony formation; type: cell-based; conditions: L63V DDR2, single application at plating
Method: (§3) Cell Culture. A549, NCI-H2286, HCC-366 and NCI-H1703 cells were obtained from the core collection at the Dana Farber Cancer Institute, having previously been purchased from the ATCC and used to establish a collection of early passage lung cancer cell lines which were analyzed by fingerprinting and SNP arrays (32). All cells used for the experiments described in this manuscript were obtained from freezes made at that time. Lung cancer cell lines were grown in RPMI (Invitrogen) with 10% fetal calf serum, NIH-3T3 cells were grown in DMEM (Mediatech) with 10% serum and Ba/F3 cells in RPMI supplemented with 10% serum and IL-3 (BD Biosciences) at 10 ng/ml. For IL-3 withdrawal experiments Ba/F3 cells were collected via centrifugation, washed once in sterile PBS and then resuspended in media without IL-3. Colony formation assays in NIH-3T3 cells were performed in six-well plates in which 25,000 NIH-3T3 cells were plated in triplicate in 1 ml of 0.33% top agar on top of 2 ml of 0.5% bottom agar. After three weeks colonies were counted using the NIH ImageJ software.

NCI-H2286 xenografts = test: Xenograft tumor size in nude mice; conditions: 50 mg/kg oral gavage, two weeks
NCI-H1703 xenografts = test: Xenograft tumor size in nude mice; conditions: 50 mg/kg oral gavage, two weeks
[7] = system: Ba/F3 cells expressing DDR2 mutants; test: Four-day proliferation of IL-3-independent Ba/F3 cells; type: cell-based; conditions: for Killing / proliferation of Ba/F3 cells expressing DDR2 mutants: single agent
Method: as §3, §1

[8] = system: HCC-366 cells (DDR2 L239R); conditions: previous report; cited from earlier work
[9] = system: NCI-H1703 SCC cell line (PDGFRA amplification); conditions: NCI-H1703, positive control line
Method: Cell Proliferation and Viability Assays. Cell proliferation was measured with the Cell-Titer-Glo reagent (Promega) per the manufacturer's instructions. For experiments with the SCC cell lines cells were plated in clear-bottomed 96 well plates at a density of 1500 cells per well. The following day the drug was added and cell proliferation was measured six days later for the SCC cell lines. For Ba/F3 cells were plated at 5000 cells per well and the drug added the same day. Proliferation was measured four days later. Proliferation measurements were made using a standard 96 well plate luminometer/plate reader. Data are shown as relative values in which the luminescence at a given drug concentration is compared to untreated cells of the same cell type.
Statistics: For proliferation and colony formation assays mean values from a minimum of triplicate samples are reported as well as standard errors as calculated by Microsoft Excel. IC50 values were obtained using Graph Pad Prism software.

[10] = system: SCC lines harboring DDR2 mutations (NCI-H2286, HCC-366); test: Cell proliferation of DDR2-mutant SCC lines (Cell-Titer-Glo); type: cell-based
[11] = system: Src and STAT5 phosphorylation in DDR2 L63V-expressing Ba/F3 cells; test: Immunoblots of phospho-Src and phospho-STAT5; type: cell-based; conditions: single agent or with nilotinib, AP24534 or dasatinib; two days
Method: Immunoblots: Immunoblots were performed using the Nupage system (Invitrogen) per the manufacturer's protocol. Cells were lysed in 1% NP-40 with protease (Roche) and phosphatase inhibitors (Calbiochem) and protein concentration assayed with the Bradford reagent (Bio-Rad). Primary antibodies used were Flag-M2 (Sigma), phospho-Y417-Src (Cell Signaling Technologies), phospho-Y694-STAT5 (Cell Signaling) and Actin (Santa Cruz). A DDR2 antibody was generated for this project by Bethyl Labs. Secondary HRP-conjugated antibodies were all obtained from Pierce and proteins detected by pico-ECL (Thermo Scientific). Images were imported into Adobe Illustrator using an Epson 4490 scanner. […] In all cases adjustment of brightness or contrast the adjustment was applied uniformly to the image as a whole.

Row | Molecule | Cell death vs cell cycle arrest by trypan blue exclusion (DDR2 mutant cell lines [1]) | Toxicity in patients [2] | Cellular annexin V staining (DDR2 mutant cell lines [3]) | Increase of IC50 with ectopic DDR2 T654M gatekeeper mutation ([4]; HCC-366 expressing T654M in cis with L239R) [fold] | IC50 ([4]; read-out: IC50, inhibition of proliferation, HCC-366, six days) [nM] | Increase of IC50 with ectopic DDR2 T654M gatekeeper mutation ([5]; NCI-H2286 expressing T654M in cis with I638F) [fold] | IC50 ([5]; read-out: IC50, inhibition of proliferation, NCI-H2286, six days) [nM] | Colony formation in soft agar [6] | Tumor size (NCI-H2286 xenografts) | Tumor size (NCI-H1703 xenografts) | IC50 ([7]; mean over Ba/F3 lines expressing DDR2 mutants, without IL-3, four days, read-out: Mean calculated IC50) [nM] | Sensitivity rank among 83 NSCLC cell lines [8] | Sensitivity of proliferation [9] | Proliferation of SCC lines harboring DDR2 mutations [10] | Effect on proliferation at 50 nM ([7]; 50 nM, wild-type Ba/F3 or Ba/F3 expressing DDR2 mutations) | Killing / proliferation of Ba/F3 cells expressing DDR2 mutants ([7]; without IL-3, four days) | Src and STAT5 phosphorylation [11] | Proliferation on addition of AZD0530 ([7]; Ba/F3 DDR2 L63V grown in 50 nM nilotinib)
1 | N-(2 ? chloro-6-methylphenyl)-2-[[6-[4-(2-hydroxyethyl)-1-piperazinyl]-2-methyl-4 ? pyrimidinyl]amino]-5-thiazolecarboxamide, monohydrate [Dasatinib] | cell death as opposed to cell cycle arrest | myelosuppression and the development of pleural and pericardial effusions | increase in cellular annexin V staining | 209 | 140 | 35 | 139 | inhibited | decrease in tumor size | decrease in tumor size | 680 | most sensitive squamous cell lung cancer line | sensitive | – | – | – | – | –
2 | Cc1cn(-c2cc(NC(=O)c3ccc(C)c(Nc4nccc(-c5cccnc5)n4)c3)cc(C(F)(F)F)c2)cn1 [Nilotinib] | – | – | – | – | – | – | – | – | – | – | – | – | – | inhibited the proliferation | little effect on proliferation | modest activity; also recorded: minimal toxicity | – | –
3 | CN1CCN(CCOc2cc(OC3CCOCC3)c3c(Nc4c(Cl)ccc5c4OCO5)ncnc3c2)CC1 [AZD0530] | – | – | – | – | – | – | – | – | – | – | – | – | – | – | – | modest effect on the proliferation; also recorded: minimal toxicity | reduced Src and STAT5 phosphorylation in a dose-dependent fashion | marked reduction in proliferation
